Molecular target: T1, purified human HDAC6 (Homo sapiens, UniProt Q9UBN7)
T1 construct: purchased BPS Bioscience 5006
T1 sequence (Q9UBN7 1-1215): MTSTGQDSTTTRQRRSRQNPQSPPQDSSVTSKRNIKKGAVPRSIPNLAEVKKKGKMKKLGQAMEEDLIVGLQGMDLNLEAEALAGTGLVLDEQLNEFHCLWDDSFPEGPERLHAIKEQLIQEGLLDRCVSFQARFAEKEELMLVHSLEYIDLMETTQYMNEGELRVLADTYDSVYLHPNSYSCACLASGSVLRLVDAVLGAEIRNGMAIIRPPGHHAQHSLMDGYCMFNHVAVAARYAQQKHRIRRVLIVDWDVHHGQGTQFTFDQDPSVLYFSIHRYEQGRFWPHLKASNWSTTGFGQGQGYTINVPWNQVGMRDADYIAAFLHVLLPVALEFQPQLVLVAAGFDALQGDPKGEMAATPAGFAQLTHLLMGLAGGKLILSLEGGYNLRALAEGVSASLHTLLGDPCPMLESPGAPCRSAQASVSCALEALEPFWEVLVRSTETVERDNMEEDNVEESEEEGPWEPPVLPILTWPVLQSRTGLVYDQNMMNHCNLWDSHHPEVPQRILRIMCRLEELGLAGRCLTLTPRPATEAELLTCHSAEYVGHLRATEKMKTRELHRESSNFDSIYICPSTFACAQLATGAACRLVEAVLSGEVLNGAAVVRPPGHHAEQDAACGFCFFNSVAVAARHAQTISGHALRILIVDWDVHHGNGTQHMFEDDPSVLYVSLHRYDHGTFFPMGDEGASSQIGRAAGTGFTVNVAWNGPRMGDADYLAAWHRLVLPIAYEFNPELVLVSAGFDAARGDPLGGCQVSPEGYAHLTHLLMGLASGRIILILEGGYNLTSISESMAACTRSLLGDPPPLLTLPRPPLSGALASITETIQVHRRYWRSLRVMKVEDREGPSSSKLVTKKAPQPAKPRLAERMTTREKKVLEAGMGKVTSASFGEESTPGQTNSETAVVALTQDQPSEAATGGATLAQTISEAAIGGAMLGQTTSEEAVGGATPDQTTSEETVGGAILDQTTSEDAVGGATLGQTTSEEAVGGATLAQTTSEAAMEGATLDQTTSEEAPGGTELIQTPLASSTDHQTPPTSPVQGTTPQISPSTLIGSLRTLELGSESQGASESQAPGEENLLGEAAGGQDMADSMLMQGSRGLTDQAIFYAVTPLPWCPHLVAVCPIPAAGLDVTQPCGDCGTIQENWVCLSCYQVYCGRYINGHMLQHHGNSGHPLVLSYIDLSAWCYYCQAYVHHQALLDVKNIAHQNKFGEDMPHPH
Experiment: HDAC6 Enzyme Assay
Assay type: biochemical
Conditions: bin: greater than 500 nM and less than 1 μM (lower bound in nM, upper bound in μM)
Method in brief: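 Purified human HDAC6 incubated 1 h at 30 °C with Ac-Arg-Gly-Lys(Ac)-AMC and compound; trichostatin A stop, trypsin release of AMC, fluorescence Ex 340/Em 460 nm. IC50 from concentration–response relative to DMSO.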

IC50 | Compound
500 to 1000 nM | CC(NS(=O)(=O)c1ccc2nsnc2c1)c1ccc(C(=O)NO)cc1 (stereo not shown) [Compound I-272, 4-{1-[(2,1,3-benzothiadiazol-5-ylsulfonyl)amino]ethyl}-N-hydroxybenzamide]
500 to 1000 nM | Cc1nc(C(F)(F)F)c(C(=O)NC(c2ccc(C(=O)NO)cc2)C(C)C)s1 (stereo not shown) [Compound I-139, N-(1-{4-[(hydroxyamino)carbonyl]phenyl}-2-methylpropyl)-2-methyl-4-(trifluoromethyl)-1,3-thiazole-5-carboxamide]
500 to 1000 nM | CC(NC(=O)c1ccc(C(F)(F)F)cc1)c1cccc(C(=O)NO)c1 (stereo not shown) [Compound I-151, N-hydroxy-3-(1-{[4-(trifluoromethyl)benzoyl]amino}ethyl)benzamide]

Same assay, conditions: bin: greater than 1 μM

IC50 | Compound
> 1000 nM | CC(NC(=O)C1CCCCC1)c1cccc(C(=O)NO)c1 (stereo not shown) [Compound I-149, 3-{1-[(cyclohexylcarbonyl)amino]ethyl}-N-hydroxybenzamide]
> 1000 nM | C[C@@H](NC(=O)C1(C)CCCCC1)c1cccc(C(=O)NO)c1 [Compound I-283, N-hydroxy-3-((1R)-1-{[(1-methylcyclohexyl)carbonyl]amino}ethyl)benzamide]
> 1000 nM | Cc1oc(-c2ccccc2)nc1CC(=O)NC(c1ccc(C(=O)NO)cc1)C(C)(C)C (stereo not shown) [Compound I-80, 4-(2,2-dimethyl-1-{[(5-methyl-2-phenyl-1,3-oxazol-4-yl)acetyl]amino}propyl)-N-hydroxybenzamide]

Same assay, conditions: purified human HDAC6, substrate Ac-Arg-Gly-Lys(Ac)-AMC, 1 hour at 30° C.; reported as bins

IC50 | Compound
< 100 nM | Cc1c(C(=O)N[C@H](C)c2ccc(C(=O)NO)cc2)oc2ccccc12 [Compound I-237, N-((1R)-1-{4-[(hydroxyamino)carbonyl]phenyl}ethyl)-3-methyl-1-benzofuran-2-carboxamide]
100 to 500 nM | CC(NC(=O)c1cc2ccccc2o1)c1cccc(C(=O)NO)c1 (stereo not shown) [Compound I-401, N-(1-{3-[(hydroxyamino)carbonyl]phenyl}ethyl)-1-benzofuran-2-carboxamide]
< 100 nM | CC(C)[C@@H](NC(=O)C(C)(C)C)c1ccc(C(=O)NO)cc1 [Compound I-287, 4-{(1R)-1-[(2,2-dimethylpropanoyl)amino]-2-methylpropyl}-N-hydroxybenzamide]
< 100 nM | Cc1ccc(NC(=O)N[C@@H](c2ccc(C(=O)NO)cc2)C(C)C)cc1C [Compound I-512, 4-[(1R)-1-({[(3,4-dimethylphenyl)amino]carbonyl}amino)-2-methylpropyl]-N-hydroxybenzamide]
100 to 500 nM | CC(C)(C)NC(=O)N[C@H](c1ccc(C(=O)NO)cc1)C(F)(F)F [Compound I-290, 4-((1R)-1-{[(tert-butylamino)carbonyl]amino}-2,2,2-trifluoroethyl)-N-hydroxybenzamide]
100 to 500 nM | COc1cc(C(=O)NO)ccc1C(C)NC(=O)c1cc2ccccc2s1 (stereo not shown) [Compound I-480, N-(1-{4-[(hydroxyamino)carbonyl]-2-methoxyphenyl}ethyl)-1-benzothiophene-2-carboxamide]
< 100 nM | CC(NC(=O)c1ccc2occc2c1)c1ccc(C(=O)NO)cc1 (stereo not shown) [Compound I-349, N-(1-{4-[(hydroxyamino)carbonyl]phenyl}ethyl)-1-benzofuran-5-carboxamide]
< 100 nM | CC(NC(=O)Nc1ccc(C#N)cc1)c1ccc(C(=O)NO)cc1 (stereo not shown) [Compound I-236, 4-[1-({[(4-cyanophenyl)amino]carbonyl}amino)ethyl]-N-hydroxybenzamide]
100 to 500 nM | CC(C)C(NC(=O)c1cccc2ccccc12)c1ccc(C(=O)NO)cc1 (stereo not shown) [Compound I-331, N-(1-{4-[(hydroxyamino)carbonyl]phenyl}-2-methylpropyl)-1-naphthamide]
100 to 500 nM | Cc1ccc(S(=O)(=O)NC(C)c2ccc(C(=O)NO)cc2)cc1 (stereo not shown) [Compound I-266, N-hydroxy-4-(1-{[(4-methylphenyl)sulfonyl]amino}ethyl)benzamide]
< 100 nM | CC(C)[C@@H](NC(=O)C12CC3CC(CC(C3)C1)C2)c1ccc(C(=O)NO)cc1 [Compound I-328, N-((1R)-1-{4-[(hydroxyamino)carbonyl]phenyl}-2-methylpropyl)adamantane-1-carboxamide]
100 to 500 nM | CC(NC(=O)c1cn(C)c2ccccc12)c1cccc(C(=O)NO)c1 (stereo not shown) [Compound I-353, N-(1-{3-[(hydroxyamino)carbonyl]phenyl}ethyl)-1-methyl-1H-indole-3-carboxamide]
< 100 nM | C[C@@H](NC(=O)Nc1ccccc1-c1ccccc1)c1ccc(C(=O)NO)cc1 [Compound I-523, 4-((1R)-1-{[(biphenyl-2-ylamino)carbonyl]amino}ethyl)-N-hydroxybenzamide]
< 100 nM | CC(NC(=O)Nc1ccc(C(F)(F)F)cc1)c1ccc(C(=O)NO)cc1 (stereo not shown) [Compound I-399, N-hydroxy-4-{1-[({[4-(trifluoromethyl)phenyl]amino}carbonyl)amino]ethyl}benzamide]
< 100 nM | CC(NC(=O)NCCc1ccccc1)c1ccc(C(=O)NO)cc1 (stereo not shown) [Compound I-210, N-hydroxy-4-[1-({[(2-phenylethyl)amino]carbonyl}amino)ethyl]benzamide]

The next lines start with the compound.

Compound | IC50
CC(C)C(NC(=O)c1cc2cc(Cl)ccc2o1)c1ccc(C(=O)NO)cc1 (stereo not shown) [Compound I-130, 5-chloro-N-(1-{4-[(hydroxyamino)carbonyl]phenyl}-2-methylpropyl)-1-benzofuran-2-carboxamide] | < 100 nM
Cc1cc(C)c(S(=O)(=O)NC(C)c2ccc(C(=O)NO)cc2)c(C)c1 (stereo not shown) [Compound I-176, N-hydroxy-4-{1-[(mesitylsulfonyl)amino]ethyl}benzamide] | 100 to 500 nM
CC(NC(=O)C1CCC1)c1ccc(C(=O)NO)cc1 (stereo not shown) [Compound I-21, 4-{1-[(cyclobutylcarbonyl)amino]ethyl}-N-hydroxybenzamide] | 100 to 500 nM
CC(NC(=O)c1cccc2c1OCC2)c1ccc(C(=O)NO)cc1 (stereo not shown) [Compound I-134, N-(1-{4-[(hydroxyamino)carbonyl]phenyl}ethyl)-2,3-dihydro-1-benzofuran-7-carboxamide] | < 100 nM
Cc1ccc(NC(=O)NC(C)c2ccc(C(=O)NO)cc2)cc1F (stereo not shown) [Compound I-120, 4-[1-({[(3-fluoro-4-methylphenyl)amino]carbonyl}amino)ethyl]-N-hydroxybenzamide] | < 100 nM
CC(C)c1cc(C(=O)NC(C)c2ccc(C(=O)NO)cc2)n(C)n1 (stereo not shown) [Compound I-186, N-(1-{4-[(hydroxyamino)carbonyl]phenyl}ethyl)-3-isopropyl-1-methyl-1H-pyrazole-5-carboxamide] | < 100 nM
CC(C)C(NC(=O)c1csc(-c2ccccc2)n1)c1ccc(C(=O)NO)cc1 (stereo not shown) [Compound I-172, N-(1-{4-[(hydroxyamino)carbonyl]phenyl}-2-methylpropyl)-2-phenyl-1,3-thiazole-4-carboxamide] | < 100 nM
O=C(NO)c1ccc([C@@H](NC(=O)c2cc3ccccc3s2)c2ccccc2)cc1 [Compound I-124, N-[(S)-{4-[(hydroxyamino)carbonyl]phenyl}(phenyl)methyl]-1-benzothiophene-2-carboxamide] | < 100 nM
C[C@@H](NC(=O)C(C)(C)C)c1ccc(C(=O)NO)cc1 [Compound I-73, 4-{(1R)-1-[(2,2-dimethylpropanoyl)amino]ethyl}-N-hydroxybenzamide] | < 100 nM
Cc1c(C(=O)N[C@H](C)c2ccc(C(=O)NO)cc2)sc2ccccc12 [Compound I-12, N-((1R)-1-{4-[(hydroxyamino)carbonyl]phenyl}ethyl)-3-methyl-1-benzothiophene-2-carboxamide] | < 100 nM
CCS(=O)(=O)NC(C)c1ccc(C(=O)NO)cc1 (stereo not shown) [Compound I-1, 4-{1-[(ethylsulfonyl)amino]ethyl}-N-hydroxybenzamide] | 100 to 500 nM
Cc1c(C(=O)NC(C)c2ccc(C(=O)NO)cc2)oc2ccccc12 (stereo not shown) [Compound I-7, N-(1-{4-[(hydroxyamino)carbonyl]phenyl}ethyl)-3-methyl-1-benzofuran-2-carboxamide] | < 100 nM
Cn1cccc1C(=O)NC(c1ccc(C(=O)NO)cc1)C(C)(C)C (stereo not shown) [Compound I-133, N-(1-{4-[(hydroxyamino)carbonyl]phenyl}-2,2-dimethylpropyl)-1-methyl-1H-pyrrole-2-carboxamide] | 100 to 500 nM

Source: patent publication US9382197B2, “Substituted hydroxamic acids and uses thereof” (Millennium Pharmaceuticals, Inc., priority 2010, dated 2016)
